Data taken from ChEMBL document CHEMBL1201862, “PubChem BioAssay data set” (2004).
Activity calls are given as the source filed them.

Columns and labels:
[1] = molecular target: Sphingosine 1-phosphate receptor 2 (Homo sapiens, UniProt O95136); assay: Dose Response Cell Based Assay for Agonists of the S1P2 Receptor of Purchased Analogues. [Related pubchem assays: 729, 843, 854, 736 ]; format: functional
Cytochrome P450 2D6 [2] = molecular target: T1, Cytochrome P450 2D6 (Homo sapiens, UniProt P10635); assay: qHTS Assay for Inhibitors and Substrates of Cytochrome P450 2D6. [Related pubchem assays: 410 ]; format: ADME; settings: read-out: Potency
Vero [3] = assay: cytotoxicity of synthesized analogs in Vero cells, SAR follow-up, cytotoxicity control for West Nile virus antiviral project, cell-based, set II (AID 2402); format: functional; settings: Chlorocebus sabaeus
Vero [4] = assay: cytotoxicity of synthesized analogs in Vero 76, SAR follow-up, cytotoxicity control for West Nile virus antiviral project, Vero 76 cells (AID 2414); format: functional; settings: Chlorocebus sabaeus
Vero [5] = assay: Vero E6 cell cytotoxicity, SAR follow-up, cytotoxicity control for West Nile virus antiviral project, synthesized analogs (AID 2244); format: functional; settings: Chlorocebus sabaeus
[6] = inhibitors of Bluetongue virus cytopathic effect, confirmation, arbovirus, BSR cells (AID 1250); format: functional;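 further: protection from viral cytopathic effect measured as cell viability by ATP luminescence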
HEK293 [7] = assay: cells; format: functional, cell-based; settings: Homo sapiens
HEK293 [8] = assay: NOD1 signaling inhibitors, primary screen, cell-based, luminescence, uHTS (AID 1578); format: functional; settings: Homo sapiens
HEK293 [9] = assay: NOD2 signaling inhibitors in MDP-stimulated cells, cell-based, uHTS, luminescence (AID 2001); format: functional; settings: Homo sapiens
[10] = molecular target: Voltage-gated inwardly rectifying potassium channel KCNH2 (Homo sapiens, UniProt Q12809); assay: hERG protection from proarrhythmic block, potency, dose response, cell-based, thallium flux (AID 2121); format: ADME
HEK293 [11] = assay: cells; format: functional, cell-based; settings: Homo sapiens; remark: listed apart in the source
Bcl-2-like protein 10 = molecular target: T2, Bcl-2-like protein 10 (Homo sapiens, UniProt Q9HD36); assay: displacers of TR3 peptide from Bcl-B, primary screen, selectivity assay for Bfl-1 inhibitor project, biochemical, fluorescence polarization, FITC-TR3 peptide (AID 748);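 further: fluorescence polarization from a fluorescein-labelled TR3 peptide binding purified Bcl-B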
T2 sequence (Q9HD36 whole entry): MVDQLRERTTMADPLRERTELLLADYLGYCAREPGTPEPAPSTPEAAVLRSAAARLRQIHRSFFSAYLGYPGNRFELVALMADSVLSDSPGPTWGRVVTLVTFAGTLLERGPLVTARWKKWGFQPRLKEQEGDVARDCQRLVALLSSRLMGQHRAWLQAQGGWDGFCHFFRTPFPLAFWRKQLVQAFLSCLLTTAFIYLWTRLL

Cytochrome P450 2D6 [12] = molecular target: T1, Cytochrome P450 2D6
[13] = cytotoxicity in HPDE-C7 cells, cell-based, fluorescence, HTS (AID 430); format: functional; settings: Homo sapiens
Estrogen receptor = molecular target: T3, Estrogen receptor (Homo sapiens, UniProt P03372); assay: potentiators of ERα–SRC-1 coactivator binding, dose response, biochemical, TR-FRET, ERα LBD (AID 737)
T3 sequence (P03372 whole entry): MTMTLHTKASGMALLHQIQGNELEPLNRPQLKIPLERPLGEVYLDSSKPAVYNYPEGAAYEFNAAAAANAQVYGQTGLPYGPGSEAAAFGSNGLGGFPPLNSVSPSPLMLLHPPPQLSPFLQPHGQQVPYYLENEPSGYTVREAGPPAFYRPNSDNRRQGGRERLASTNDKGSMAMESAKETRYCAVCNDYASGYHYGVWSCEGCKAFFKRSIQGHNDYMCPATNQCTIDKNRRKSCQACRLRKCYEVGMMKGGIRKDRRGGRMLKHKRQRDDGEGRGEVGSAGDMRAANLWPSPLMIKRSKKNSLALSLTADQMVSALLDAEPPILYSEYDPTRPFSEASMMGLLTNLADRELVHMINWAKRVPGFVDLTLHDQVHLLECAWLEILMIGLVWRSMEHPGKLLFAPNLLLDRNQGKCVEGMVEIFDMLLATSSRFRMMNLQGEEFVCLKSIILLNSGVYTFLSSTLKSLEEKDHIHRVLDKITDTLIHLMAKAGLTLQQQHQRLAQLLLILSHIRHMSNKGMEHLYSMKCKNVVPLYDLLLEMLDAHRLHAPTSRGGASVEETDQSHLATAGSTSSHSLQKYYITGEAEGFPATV

[14] = cytotoxicity in KRAS-transformed pancreatic duct cells, primary screen, cell-based, fluorescence, HTS (AID 431); format: functional; settings: Homo sapiens;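 further: cell line used: HPDE-C7K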
Vero [15] = assay: Vero cell cytotoxicity, cytotoxicity control for flavivirus capping enzyme inhibitors (AID 588742); format: functional; settings: Chlorocebus sabaeus
Cytochrome P450 2C9 [16] = molecular target: T4, Cytochrome P450 2C9 (Homo sapiens, UniProt P11712)
Cytochrome P450 2C9 [17] = molecular target: T4, Cytochrome P450 2C9; settings: Potency
Cytochrome P450 2C19 = Cytochrome P450 2C19 (Homo sapiens, UniProt P33261); assay: Cytochrome panel assay with activity outcomes. Panel member name: p450-cyp2c19 Compounds with AC50 equal or less than 10 uM are considered active; format: functional; settings: read-out: AC50
Sequence of Cytochrome P450 2C19 (P33261 whole entry): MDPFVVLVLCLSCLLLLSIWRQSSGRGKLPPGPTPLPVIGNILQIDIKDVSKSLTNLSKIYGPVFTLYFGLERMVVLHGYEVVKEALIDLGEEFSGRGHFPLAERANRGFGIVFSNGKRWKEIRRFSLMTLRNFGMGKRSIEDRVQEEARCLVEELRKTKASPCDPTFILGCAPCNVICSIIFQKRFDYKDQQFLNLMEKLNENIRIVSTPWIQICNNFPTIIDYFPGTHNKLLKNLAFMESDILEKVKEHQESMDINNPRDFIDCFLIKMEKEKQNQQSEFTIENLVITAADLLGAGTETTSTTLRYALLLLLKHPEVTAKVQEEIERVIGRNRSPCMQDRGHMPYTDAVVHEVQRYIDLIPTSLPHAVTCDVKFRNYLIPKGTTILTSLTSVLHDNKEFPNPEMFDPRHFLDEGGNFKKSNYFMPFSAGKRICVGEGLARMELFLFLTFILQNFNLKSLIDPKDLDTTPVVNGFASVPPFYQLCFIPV

T1 sequence (P10635 whole entry): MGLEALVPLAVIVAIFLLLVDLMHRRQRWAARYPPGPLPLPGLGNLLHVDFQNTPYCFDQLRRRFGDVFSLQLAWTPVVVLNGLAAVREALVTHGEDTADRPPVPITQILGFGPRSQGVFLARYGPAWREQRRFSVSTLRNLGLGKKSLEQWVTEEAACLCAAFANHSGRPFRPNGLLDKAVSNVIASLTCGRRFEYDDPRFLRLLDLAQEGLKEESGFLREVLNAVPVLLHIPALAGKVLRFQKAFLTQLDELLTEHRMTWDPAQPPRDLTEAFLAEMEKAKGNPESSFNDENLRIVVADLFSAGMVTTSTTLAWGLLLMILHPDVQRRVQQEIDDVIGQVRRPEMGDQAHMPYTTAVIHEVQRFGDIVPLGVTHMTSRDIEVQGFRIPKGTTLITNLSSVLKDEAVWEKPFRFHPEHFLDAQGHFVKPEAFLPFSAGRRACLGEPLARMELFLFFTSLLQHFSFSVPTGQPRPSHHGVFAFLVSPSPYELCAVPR
T4 sequence (P11712 whole entry): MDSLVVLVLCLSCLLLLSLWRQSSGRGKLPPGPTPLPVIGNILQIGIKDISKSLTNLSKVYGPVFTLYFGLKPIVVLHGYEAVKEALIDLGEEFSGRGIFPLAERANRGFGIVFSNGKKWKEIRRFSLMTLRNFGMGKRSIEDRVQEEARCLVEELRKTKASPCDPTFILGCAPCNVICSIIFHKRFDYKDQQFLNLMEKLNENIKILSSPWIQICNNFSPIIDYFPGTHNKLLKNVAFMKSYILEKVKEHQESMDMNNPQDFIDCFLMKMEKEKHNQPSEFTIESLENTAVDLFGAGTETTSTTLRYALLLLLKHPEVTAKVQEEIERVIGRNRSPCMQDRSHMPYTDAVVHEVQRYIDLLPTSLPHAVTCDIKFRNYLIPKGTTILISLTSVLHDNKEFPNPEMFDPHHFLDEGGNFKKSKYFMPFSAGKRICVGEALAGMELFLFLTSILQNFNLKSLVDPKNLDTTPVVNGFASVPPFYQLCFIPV
Sequence of Voltage-gated inwardly rectifying potassium channel KCNH2 (Q12809 whole entry): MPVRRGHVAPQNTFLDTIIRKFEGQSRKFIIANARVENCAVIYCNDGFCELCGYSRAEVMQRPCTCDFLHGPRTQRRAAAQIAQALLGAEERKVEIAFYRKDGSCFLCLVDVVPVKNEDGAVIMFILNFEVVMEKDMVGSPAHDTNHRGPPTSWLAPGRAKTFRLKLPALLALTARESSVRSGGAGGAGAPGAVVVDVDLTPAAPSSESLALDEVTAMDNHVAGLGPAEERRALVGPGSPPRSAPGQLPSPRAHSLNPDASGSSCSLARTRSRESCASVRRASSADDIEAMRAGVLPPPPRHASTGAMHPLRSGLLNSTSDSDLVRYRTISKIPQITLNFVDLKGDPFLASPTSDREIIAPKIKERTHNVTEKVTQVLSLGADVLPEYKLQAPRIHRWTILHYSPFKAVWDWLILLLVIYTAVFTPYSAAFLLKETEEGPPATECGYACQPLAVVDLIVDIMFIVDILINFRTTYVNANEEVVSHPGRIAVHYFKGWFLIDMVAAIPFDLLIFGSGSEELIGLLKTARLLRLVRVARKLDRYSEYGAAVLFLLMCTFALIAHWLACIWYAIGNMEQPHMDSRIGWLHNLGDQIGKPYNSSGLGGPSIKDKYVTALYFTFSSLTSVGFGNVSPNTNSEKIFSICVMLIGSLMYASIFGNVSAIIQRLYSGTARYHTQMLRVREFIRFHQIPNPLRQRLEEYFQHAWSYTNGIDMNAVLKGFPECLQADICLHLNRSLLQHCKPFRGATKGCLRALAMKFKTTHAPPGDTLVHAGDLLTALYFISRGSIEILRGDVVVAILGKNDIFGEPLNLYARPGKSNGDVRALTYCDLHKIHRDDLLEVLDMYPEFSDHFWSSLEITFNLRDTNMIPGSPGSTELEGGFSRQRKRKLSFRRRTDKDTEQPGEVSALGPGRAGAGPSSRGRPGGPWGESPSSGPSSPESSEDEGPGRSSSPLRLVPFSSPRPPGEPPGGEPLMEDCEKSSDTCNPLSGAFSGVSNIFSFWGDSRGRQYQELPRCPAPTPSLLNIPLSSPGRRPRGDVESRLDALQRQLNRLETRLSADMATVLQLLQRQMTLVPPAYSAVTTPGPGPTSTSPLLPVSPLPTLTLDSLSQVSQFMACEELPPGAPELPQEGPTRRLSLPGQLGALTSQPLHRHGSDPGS
Sequence of Sphingosine 1-phosphate receptor 2 (O95136 whole entry): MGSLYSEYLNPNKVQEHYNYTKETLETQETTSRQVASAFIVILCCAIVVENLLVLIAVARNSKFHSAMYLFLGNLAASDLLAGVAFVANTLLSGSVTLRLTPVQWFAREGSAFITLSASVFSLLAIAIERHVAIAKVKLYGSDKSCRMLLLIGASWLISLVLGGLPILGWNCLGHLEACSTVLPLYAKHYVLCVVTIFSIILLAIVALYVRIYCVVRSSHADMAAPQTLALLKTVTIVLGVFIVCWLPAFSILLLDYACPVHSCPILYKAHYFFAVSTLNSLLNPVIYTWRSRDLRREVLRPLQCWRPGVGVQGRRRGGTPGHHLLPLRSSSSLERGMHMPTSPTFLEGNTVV

Q: For `Cc1cc(C(=O)CN2CCN(C(=O)c3ccco3)CC2)c(C)n1Cc1ccccc1`, which EC50 [1] is on record?
A: > 30 µM (not active)

Q: For `O=C1c2ccccc2C(O)(O)[C@@]1(O)[C@]1(O)C(=O)c2ccccc2C1(O)O`, which AC50 (Cytochrome P450 2D6 [2]) is on record?
A: 7.94 µM (inconclusive)

Q: With `O=C(CSc1nc2ccccc2c(=O)n1-c1ccc(F)cc1)Nc1cccc2ccccc12` as the compound, how does the CC50 (Vero [3]) read?
A: > 100 µM (active)

Q: And the CC50 (Vero [4])?
A: > 66.6 µM (active)

Q: And the CC50 (Vero [5])?
A: > 40 µM (active)

Q: With `CC(CCc1ccccc1)NC(=O)c1cc2sccc2n1C` (stereo unspecified) as the compound, how does the IC50 [6] read?
A: > 100 µM (active)

Q: What does the source list for `CSC(=S)N/N=C/c1ccc(Br)cc1`?
A: IC50 (HEK293 [7]): > 20 µM (inactive); EC50 (HEK293 [8]): > 20 µM (inactive); IC50 (HEK293 [9]): 14.2 µM (inactive); EC50 [10]: 0.3 µM (active); IC50 (HEK293 [11]): > 20 µM (inactive)

Q: Which IC50 (Bcl-2-like protein 10) does the source give for `CC(=O)c1c(CC(=O)O)[nH]n(-c2nc3ccccc3s2)c1=O` here?
A: 71.2 µM (inactive)

Q: With `COc1ccc(C[C@H]2c3cc(OC)c(OC)cc3CCN2C)cc1OC` as the compound, how does the AC50 (Cytochrome P450 2D6 [12]) read?
A: 6.31 µM (inconclusive)

Q: And the AC50 (Cytochrome P450 2D6 [2])?
A: 12.6 µM (inconclusive)

Q: Which results are given for `CCC(=O)Oc1ccc(/C(CC)=C(\CC)c2ccc(OC(=O)CC)cc2)cc1` [DIETHYLSTILBESTROL DIPROPIONATE]?
A: EC50 [13]: 4.6 µM (active); EC50 (Estrogen receptor): 18.1 µM (active); EC50 [14]: 3.87 µM (active); CC50 (Vero [15]): > 40 µM (active)

Q: Which results are given for `CC(C)C(=O)Nc1ccc([N+](=O)[O-])c(C(F)(F)F)c1` [FLUTAMIDE]?
A: AC50 (Cytochrome P450 2C9 [16]): 12.6 µM (inconclusive); AC50 (Cytochrome P450 2C9 [17]): 39.8 µM (inconclusive); AC50 (Cytochrome P450 2C19): 10 µM (inconclusive)
